# Measurements: US8088788B2, “Substituted fused[1,2] imidazo[4,5-c] ring compounds and methods” (3M Innovative Properties Company, priority 2006, dated 2012)
row,Compound,melting point [°C]
1,"Nc1nc2ccccc2c2c1nc1n2CCCN1 [Example 5, 8,9,10,11-Tetrahydropyrimido[1′,2′:1,2]imidazo[4,5-c]quinolin-6-amine]",> 250
2,"Nc1nc2cc(Br)ccc2c2c1nc1n2CCCO1 [Example 7, 3-Bromo-10,11-dihydro-9H-[1,3]oxazino[3′,2′:1,2]imidazo[4,5-c]quinolin-6-amine]",273 to 276
3,"CC1CCc2nc3c(N)nc4ccccc4c3n2N1 (stereo not drawn) [Example 24, 10-Methyl-8,9,10,11-tetrahydropyridazino[1′,6′:1,2]imidazo[4,5-c]quinolin-6-amine]",241 to 243
4,"Cc1ccc(S(=O)(=O)n2ccc3nc4c(N)nc5ccccc5c4n32)cc1 [Example 25, 10-[(4-Methylphenyl)sulfonyl]-10H-pyrazolo[1′,5′:1,2]imidazo[4,5-c]quinolin-6-amine]",204 to 206

# The remaining lines, values ahead:
row,melting point [°C],Compound
1,272 to 274,"C[C@@H]1CNc2nc3c(N)nc4ccccc4c3n21 [Example 28, (10R)-10-Methyl-9,10-dihydro-8H-imidazo[1′,2′:1,2]imidazo[4,5-c]quinolin-6-amine]"
2,265 to 273,"C[C@H]1CNc2nc3c(N)nc4ccccc4c3n21 [Example 27, (10S)-10-Methyl-9,10-dihydro-8H-imidazo[1′,2′:1,2]imidazo[4,5-c]quinolin-6-amine]"
